Tests used:
Type in all cases: cell-based
[1] = test system: oxidative MTHFD2 flux in SKOV3 cells; experiment: Oxidative MTHFD2 flux by 4-[2H]-glucose tracing; conditions: SKOV3, increasing rotenone doses (0-1,000 nM), 8 h
Protocol: (§1) FIG. 4 Dynamic flux analysis with parallel tracers to quantify oxidative MTHFD2 flux. a, Oxidative MTHFD2 flux and percentage decrease in OCRfollowing MTHFD2 inhibition in SKOV3 cells treated with rotenone (0, 31, 62, 125, 250, 500 or 1,000 nM) and MTHFD2 inhibitor (0 or 60 μM). Oxidative MTHFD2 flux is proportional to [2H1]-serine/[2H1]-NADH enrichment in cells cultured with 4-[2H]-glucose for 8 h. Percentage decrease in OCR is estimated in SKOV3 cells treated with 60 μM MTHFD2i compared with 0 μM MTHFD2i. Oxidative flux data are combined from two independent experiments (n=4), with mean±s.d. estimated using error propagation. […] (n=6) and analysed using two-tailed Welch's t-test. e, Ratio of [2H2]-serine/[2H]-NADH enrichment in SKOV3 and OVCAR8 cells at 2 h after combined tracer introduction of 4-[2H]-glucose and [2H]-formate, representing the normalized contribution of [2H]-NADH to [2H2]-serine via oxidative MTHFD2 flux. Data combined from two independent experiments (n=6), with mean±s.d. estimated using error propagation and analysed by two-tailed Welch's t-test. f, [2H2]-serine enrichment in SKOV3 cells expressing shScramble or shUQCR11 at 2 h after combined tracer introduction of 4-[2H]-glucose and [2H]-formate. […] (n=5) and analysed using one-tailed non-parametric Mann-Whitney test. […]

[2] = test system: reductive MTHFD2 flux in SKOV3 cells; experiment: Reductive MTHFD2 flux by 2,3,3-[2H]-serine tracing; conditions: SKOV3, increasing rotenone doses, 8 h
Protocol: as §1

SKOV3 cells = experiment: Oxygen consumption rate (OCR) measurement; conditions: SKOV3, increasing rotenone concentrations
Protocol: FIG. 4 Dynamic flux analysis with parallel tracers to quantify oxidative MTHFD2 flux. a, Oxidative MTHFD2 flux and percentage decrease in OCRfollowing MTHFD2 inhibition in SKOV3 cells treated with rotenone (0, 31, 62, 125, 250, 500 or 1,000 nM) and MTHFD2 inhibitor (0 or 60 μM). Oxidative MTHFD2 flux is proportional to [2H1]-serine/[2H1]-NADH enrichment in cells cultured with 4-[2H]-glucose for 8 h. Percentage decrease in OCR is estimated in SKOV3 cells treated with 60 μM MTHFD2i compared with 0 μM MTHFD2i. Oxidative flux data are combined from two independent experiments (n=4), with mean±s.d. estimated using error propagation. OCR data are representative of two independent experiments and presented as mean±s.d. estimated using error propagation (n=5). b, Reductive MTHFD2 flux and basal OCR in SKOV3 cells treated with rotenone (0, 31, 62, 125, 250 or 1,000 nM) and MTHFD2 inhibitor (0 or 60 μM). Reductive MTHFD2 flux is proportional to [2H1]-NADH in cells cultured with 2,3,3-[2H]-serine for 8 h. OCR data are representative of two independent experiments and presented as mean±s.e.m. (n=5). c, Schematic of combination tracer experiment with 4-[2H]-glucose and [2H]-formate to track oxidative MTHFD2 flux. […] (n=6) and analysed using two-tailed Welch's t-test. e, Ratio of [2H2]-serine/[2H]-NADH enrichment in SKOV3 and OVCAR8 cells at 2 h after combined tracer introduction of 4-[2H]-glucose and [2H]-formate, representing the normalized contribution of [2H]-NADH to [2H2]-serine via oxidative MTHFD2 flux. Data combined from two independent experiments (n=6), with mean±s.d. estimated using error propagation and analysed by two-tailed Welch's t-test. f, [2H2]-serine enrichment in SKOV3 cells expressing shScramble or shUQCR11 at 2 h after combined tracer introduction of 4-[2H]-glucose and [2H]-formate. […] (n=5) and analysed using one-tailed non-parametric Mann-Whitney test.
OCR measurement. […] Live OCR was measured for up to 16 h after attaching the lid.
Mito stress test with the Seahorse analyser. Mitochondrial OCR was measured using a Seahorse XFe96 analyser (Agilent Technologies). […]

[3] = test system: parental ovarian cancer lines and isogenic SKOV3 lines; experiment: Viability with MTHFD2 inhibitor and uridine supplementation; conditions: uridine 50 μM supplementation
Protocol: FIG. 15 Investigating metabolic consequence of Complex III impairment and activity of paralogous pathways other than oxidative MTHFD2. (a) Effect of MTHFD2 inhibitor ([…]) and uridine (50 μM) supplementation on viability of parental ovarian cancer lines that are UQCR11—intact (SKOV3) or UQCR11-null (HeyA8, OVCAR8, CAOV3). Data are representative of two independent experiments and presented as mean±s.d. (n=6). Data analyzed with one-way ANOVA with Tukey's correction for multiple comparisons. (b) Effect of MTHFD2 inhibitor and uridine supplementation on viability of isogenic SKOV3 lines expressing shScramble or shUQCR11. […] Data analyzed with one-way ANOVA with Tukey's correction for multiple comparisons. […] (n=6) and analyzed using two-tailed Student's t-test. (d) mRNA expression of NNT, IDH2, IDH3A measured via qRT-PCR after knocking down with shNNT, shIDH2, and shIDH3A, relative to scramble shRNA (shScr), verifying knockdown efficiency in SKOV3 and OVCAR8 cell-lines. […] Data analyzed using unpaired two-tailed Student's t-test. […] Data are analyzed using ordinary one-way ANOVA with multiple comparisons. […] Loss of viability calculated by comparing respective viability in vehicle control-treated cells to MTHFD2 inhibitor-treated cells. […] (n=6) and analyzed using ordinary one-way ANOVA with Dunnett's correction for multiple comparisons. Error bars are calculated using propagation of error principles.

SMILES | oxidative MTHFD2 flux [1] | reductive MTHFD2 flux [2] | basal OCR (SKOV3 cells) | rescue of cells from MTHFD2 inhibition [3]
C=C(C)[C@H]1Cc2c(ccc3c2O[C@@H]2COc4cc(OC)c(OC)cc4[C@@H]2C3=O)O1 [rotenone] | first increased with increasing, yet low, rotenone doses but returned to original levels as doses were further increased | modest increase at low rotenone doses, which became most pronounced at the highest doses | monotonic decrease | –
O=c1ccn([C@@H]2O[C@H](CO)[C@@H](O)[C@H]2O)c(=O)[nH]1 [uridine] | – | – | – | unable to rescue
